Marks after values point to notes of the source that are not given here.
What was measured:
Assay type in all cases: in vivo
[1] = test system: PCOS induced by letrozole in female Wistar rats; assay: Serum hormonal levels (17-β estradiol, progesterone, FSH, LH) in letrozole-induced PCOS; conditions: day 22 to day 36
Description: (§1) Animals and Experimental design: Animals were housed under standard air-conditioned laboratory conditions. The temperature was maintained at maximum: 24° C. and a minimum of 23° C. and Relative humidity at maximum: 63% and a minimum of 48% with 12 h light and 12 h dark cycle. The maximum and minimum temperature and relative humidity in the experimental room were recorded once daily. Female virgin Wistar rats (150-200 g) was checked daily for 4-day ovarian cycle using vaginal cytology. PCOS was induced by oral administration of aromatase inhibitor, letrozole (1 mg/kg) dissolved in 0.5% CMC (2 mg/kg) for 21 days. During the experiment, the estrous cycle was monitored by the analyses of relative proportion of leukocytes, epithelial and cornified cells in vaginal smears. Following letrozole administration, test samples were administered to animals from day 22 to day 36. After treatment protocol, animal from all groups (Table 1) were fasted overnight and anesthetized with diethylether/halothane. The blood was collected by retino-orbital puncture, then serum was separated by centrifugation followed by estimation of hormones and other biochemical parameters using commercially available ELISA kits. The serum hormone levels, body weight and ovary weigh of the animals were assessed to ascertain the effective dose.

[2] = test system: PCOS induced by letrozole in female Wistar rats; assay: Body weight in letrozole-induced PCOS
Description: as §1

[3] = test system: PCOS induced by letrozole in female Wistar rats; assay: Ovarian weight in letrozole-induced PCOS; conditions: day 22 to day 36
Description: as §1

[4] = test system: PCOS induced by letrozole in female Wistar rats; assay: Thyroid function analysis (serum T3, T4, TSH) in PCOS
Description: Animals and Experimental design: Animals were housed under standard air-conditioned laboratory conditions. The temperature was maintained at maximum: 24° C. and a minimum of 23° C. and Relative humidity at maximum: 63% and a minimum of 48% with 12 h light and 12 h dark cycle. The maximum and minimum temperature and relative humidity in the experimental room were recorded once daily. Female virgin Wistar rats (150-200 g) was checked daily for 4-day ovarian cycle using vaginal cytology. PCOS was induced by oral administration of aromatase inhibitor, letrozole (1 mg/kg) dissolved in 0.5% CMC (2 mg/kg) for 21 days. During the experiment, the estrous cycle was monitored by the analyses of relative proportion of leukocytes, epithelial and cornified cells in vaginal smears.
Following letrozole administration, test samples were administered to animals from day 22 to day 36. After treatment protocol, animal from all groups (Table 1) were fasted overnight and anesthetized with diethylether/halothane. The blood was collected by retino-orbital puncture, then serum was separated by centrifugation followed by estimation of hormones and other biochemical parameters using commercially available ELISA kits.
Based on the above results, the following groups were taken for further analysis BDMC 25 mg/kg p.o. • BDMC 50 mg/kg p.o. • AC3 100 mg/kg p.o. • AC3 200 mg/kg p.o.
The following molecular targets were assessed: • 1. Thyroid Function analysis • 2. Effect on androgen profile • 3. Effect on serum adiponectin levels • 4. Insulin resistance • 5. Effect on Serum Paraoxonase 1 Activity • 6. Effect of gut microbiota • 7. Oxidative stress and inflammatory markers Thyroid Function Analysis

SMILES: O=C(/C=C/c1ccc(O)cc1)CC(=O)/C=C/c1ccc(O)cc1 [BDMC, bisdemethoxycurcumin]
- Serum hormonal levels 17-β estradiol ([1]; 3.12 mg/kg): 16.89 ± 3.01 pg/mL
- Serum hormonal levels FSH ([1]; 3.12 mg/kg): 10.54 ± 1.44 mIU/mL
- Serum hormonal levels LH ([1]; 3.12 mg/kg): 26.33 ± 3.02 mIU/mL
- Serum hormonal levels Progesterone ([1]; 3.12 mg/kg): 18.67 ± 1.03 ng/mL
- Serum hormonal levels 17-β estradiol ([1]; 6.25 mg/kg): 18.22 ± 2.44 pg/mL
- Serum hormonal levels FSH ([1]; 6.25 mg/kg): 10.98 ± 1.52 mIU/mL
- Serum hormonal levels LH ([1]; 6.25 mg/kg): 27.32 ± 2.30 mIU/mL
- Serum hormonal levels Progesterone ([1]; 6.25 mg/kg): 20.56 ± 1.09 ng/mL
- Serum hormonal levels 17-β estradiol ([1]; 12.5 mg/kg): 18.89 ± 1.65 pg/mL
- Serum hormonal levels FSH ([1]; 12.5 mg/kg): 12.58 ± 1.08 mIU/mL
- Serum hormonal levels LH ([1]; 12.5 mg/kg): 24.36 ± 2.11 mIU/mL
- Serum hormonal levels Progesterone ([1]; 12.5 mg/kg): 23.50 ± 2.21 ng/mL
- Serum hormonal levels 17-β estradiol ([1]; 25 mg/kg): 22.50 ± 1.67 pg/mL
- Serum hormonal levels FSH ([1]; 25 mg/kg): 13.28 ± 1.34 mIU/mL
- Serum hormonal levels LH ([1]; 25 mg/kg): 21.54 ± 1.26 mIU/mL
- Serum hormonal levels Progesterone ([1]; 25 mg/kg): 26.95 ± 1.53 ng/mL
- Serum hormonal levels 17-β estradiol ([1]; 50 mg/kg): 21.26 ± 2.32 pg/mL
- Serum hormonal levels FSH ([1]; 50 mg/kg): 13.07 ± 1.36 mIU/mL
- Serum hormonal levels LH ([1]; 50 mg/kg): 22.78 ± 1.76 mIU/mL
- Serum hormonal levels Progesterone ([1]; 50 mg/kg): 26.28 ± 1.22 ng/mL
- Average body weight ([2]; 3.12 mg/kg from day 22, Day 28 (PCOS + Treatment)): 202 ± 4.15 g
- Average body weight ([2]; 3.12 mg/kg from day 22, Day 36 (PCOS + Treatment)): 200 ± 6.36 g
- Average body weight ([2]; 3.12 mg/kg group, Day 1 (PCOS induction, before treatment)): 158 ± 6.16 g
- Average body weight ([2]; 3.12 mg/kg group, Day 7 (PCOS induction, before treatment)): 175 ± 5.27 g
- Average body weight ([2]; 3.12 mg/kg group, Day 14 (PCOS induction, before treatment)): 194 ± 5.77 g
- Average body weight ([2]; 3.12 mg/kg group, Day 21 (PCOS induction, before treatment)): 210 ± 7.58 g
- Average body weight ([2]; 6.25 mg/kg from day 22, Day 28 (PCOS + Treatment)): 201 ± 6.88 g
- Average body weight ([2]; 6.25 mg/kg from day 22, Day 36 (PCOS + Treatment)): 198 ± 6.45 g
- Average body weight ([2]; 6.25 mg/kg group, Day 1 (PCOS induction, before treatment)): 157 ± 8.15 g
- Average body weight ([2]; 6.25 mg/kg group, Day 7 (PCOS induction, before treatment)): 175.3 ± 4.5 g
- Average body weight ([2]; 6.25 mg/kg group, Day 14 (PCOS induction, before treatment)): 195.5 ± 6.6 g
- Average body weight ([2]; 6.25 mg/kg group, Day 21 (PCOS induction, before treatment)): 215 ± 5.78 g
- Average body weight ([2]; 12.5 mg/kg from day 22, Day 28 (PCOS + Treatment)): 200 ± 6.57 g
- Average body weight ([2]; 12.5 mg/kg from day 22, Day 36 (PCOS + Treatment)): 196 ± 5.26 g
- Average body weight ([2]; 12.5 mg/kg group, Day 1 (PCOS induction, before treatment)): 158 ± 7.88 g
- Average body weight ([2]; 12.5 mg/kg group, Day 7 (PCOS induction, before treatment)): 174 ± 2.83 g
- Average body weight ([2]; 12.5 mg/kg group, Day 14 (PCOS induction, before treatment)): 202.5 ± 8.12^ g
- Average body weight ([2]; 12.5 mg/kg group, Day 21 (PCOS induction, before treatment)): 212 ± 6.36 g
- Average body weight ([2]; 25 mg/kg from day 22, Day 28 (PCOS + Treatment)): 201 ± 5.54 g
- Average body weight ([2]; 25 mg/kg from day 22, Day 36 (PCOS + Treatment)): 191 ± 5.84 g
- Average body weight ([2]; 25 mg/kg group, Day 1 (PCOS induction, before treatment)): 157.5 ± 8.16^ g
- Average body weight ([2]; 25 mg/kg group, Day 7 (PCOS induction, before treatment)): 172 ± 6.46 g
- Average body weight ([2]; 25 mg/kg group, Day 14 (PCOS induction, before treatment)): 190.5 ± 4.44^ g
- Average body weight ([2]; 25 mg/kg group, Day 21 (PCOS induction, before treatment)): 210 ± 5.12 g
- Average body weight ([2]; 50 mg/kg from day 22, Day 28 (PCOS + Treatment)): 199 ± 8.15 g
- Average body weight ([2]; 50 mg/kg from day 22, Day 36 (PCOS + Treatment)): 192 ± 6.36 g
- Average body weight ([2]; 50 mg/kg group, Day 1 (PCOS induction, before treatment)): 157 ± 6.13 g
- Average body weight ([2]; 50 mg/kg group, Day 7 (PCOS induction, before treatment)): 168 ± 5.47 g
- Average body weight ([2]; 50 mg/kg group, Day 14 (PCOS induction, before treatment)): 190 ± 10.42 g
- Average body weight ([2]; 50 mg/kg group, Day 21 (PCOS induction, before treatment)): 211 ± 7.58 g
- Ovarian weight ([3]; 3.12 mg/kg): 63.88 ± 2.19 mg
- Ovarian weight ([3]; 6.25 mg/kg): 59.64 ± 2.32 mg
- Ovarian weight ([3]; 12.5 mg/kg): 54.36 ± 2.80 mg
- Ovarian weight ([3]; 25 mg/kg): 47.88 ± 2.76 mg
- Ovarian weight ([3]; 50 mg/kg): 48.54 ± 2.42 mg
- Serum hormonal levels T3 ([4]; 25 mg/kg p.o.): 3.3 ± 0.18 μIU/ml
- Serum hormonal levels T4 ([4]; 25 mg/kg p.o.): 11.78 ± 0.39 μIU/ml
- Serum hormonal levels TSH ([4]; 25 mg/kg p.o.): 5.28** nmol/L
- Serum hormonal levels T3 ([4]; 50 mg/kg p.o.): 3.05 ± 0.17 μIU/ml
- Serum hormonal levels T4 ([4]; 50 mg/kg p.o.): 10.45 ± 0.27 μIU/ml
- Serum hormonal levels TSH ([4]; 50 mg/kg p.o.): 7.12** nmol/L

— patent US12233032B2, “Compositions for management of polycystic ovary syndrome” (Sami-Sabinsa Group Limited, priority 2021, dated 2025)
